Test results taken from patent US6908943B2, “Use of γ-tocopherol and its oxidative metabolite LLU-α in the treatment of disease” (Loma Linda University Medical Center, priority 1998, dated 2005).
Values joined by “and” are separate entries in the source; they are usually repeats but may differ in a detail not shown here. Equal values may be shown once. “Also recorded” adds a separate entry of the source. One block for each compound: values may come before it.

Tests used:
[1] = system: conscious rats; test: In vivo bioassay for natriuresis in conscious rats; set-up: species or system rat; conditions: for Natriuretic Response (R): R > 0.67 = active
Procedure: The assay for natriuresis in conscious rats has been described previously (see Benaksas et al., above). The assay is briefly reiterated here. Female Sprague-Dawley (Harlan) rats (200-250 g) were cannulated in the femoral artery and vein for monitoring of mean arterial pressure (MAP) and Infusion of saline and samples, respectively. The bladder was catheterized for collection of urine in ten-minute periods. Furosemide (0.4 mg/kg bwt; 1 mg/mL in 0.17% saline) was infused as a positive control at the beginning of the sixth ten-minute period. The sample was infused at the beginning of the seventeenth ten-minute period. Urine was collected for another 150 minutes. The volume of the urine was determined gravimetrically and the Na^+ and K^+ concentrations determined with a Beckman E2A electrolyte analyzer.
The natriuretic response of a sample was normalized to the dose of furosemide infused. The not sodium excretion for the Infusion of furosemide or sample was calculated as follows. The median sodium excretion value (μmoles Na^+/10 minute period) for the five periods before infusion of furosemide or sample was used to establish a baseline value for the calculation of ΔUNaV (=μmoles Na^+ period—baseline μmoles Na^+) for administration of either furosemide or sample respectively. The sum of ΔUNaV for the four periods following infusion of furosemide was the net sodium excreted for furosemide, defined as FR. The sum of ΔUNaV for the fifteen periods following infusion of the sample was the net sodium excreted for the sample defined as SR. The natriuretic ratio Rn (or normalized natriuretic response) of a sample was calculated by dividing SR by FR (Rn=SR/FR). A sample is considered natriuretically active if the Rn value for that sample was greater than or equal to 0.67 (greater than 99% confidence limits).

[2] = Chemical characteristics / stability of the natriuretic LLUs; assay type: physicochemical
[3] = molecular target: T1, Na+/K+-ATPase (Bos taurus, UniProt Q08DA1); test: Na+/K+-ATPase inhibition assay (86Rb+ uptake) in MDBK cells; assay type: cell-based, bovine; conditions: 0.2-200 ng/well
T1 construct: host or cells: MDBK (Madin-Darby bovine kidney) cells
Procedure: The assay in MDBK cells has been described previously (see Benaksas at al., above). The assay is described briefly here. Madin-Darby bovine kidney (MDBK) cells (ATCC:CCL22) were maintained in Dulbecco's Modified Eagle's Medium (DMEM) with 5% Fetal Bovine Serum and 5% Bovine Calf Serum in a 5% CO2/95% humidified air atmosphere at 37° C. and split (1:2) once per week.
One day before the assay, cells were plated in a 96-well plate at a density of 5×10^5 cells/well in DMEM with serum. On the day of the assay the medium was removed and the cells washed with phosphate buffered saline (PBS) before addition of 100 μL of assay media (122 mM NaCl, 1.8 mM CaCl2, 0.8 mM MgSO4, 24 mM NaHCO3, 1 mM sodium pyruvate, 25 mM glucose, 14 mM glycylglycine, 0.2% phenol red, 8 mM Na2HPO4 1.15 mM KH2PO4, pH 8.0) and 100 μl of sample. The plate was preincubated for 30 minutes at 37° C., then chilled on ice for 10 minutes. To each well was added 0.15 μCi ^86RbCl (Amersham) in 10 μL of assay media. The plate was then incubated at 37° C. for 10 minutes. A portion (100 μL) of the supernatant was counted with 0.5 mL of scintillation cocktail in a liquid scintillation counter. As a control for Na^+/K^+-ATPase inhibition, a dose response curve for ouabain in the range of 10^−5-10^−8 M was obtained. Intra-experiment coefficient of variation for ouabain was 3-15%. […]

[4] = system: tumor cells derived from a spontaneously arising mammary tumor; test: Tumor formation in mice injected with mammary tumor cells; assay type: in vivo; conditions: 20 mg/kg, 21 days after tumor cell injection, versus untreated tumor-induced control mice
Text: Four groups of mice are used in the study: (1) control mice in which tumor formation is not induced but treatment with a formulation of γ-tocopherol 75% (weight to weight) and LLU-α 25% (weight to weight) is rendered; (2) control mice in which tumor formation is induced and treatment is not rendered; (3) experimental mice in which tumor formation is induced and treatment with γ-tocopherol 75% (weight to weight) is rendered; and (4) experimental mice in which tumor formation is induced and treatment with a formulation of γ-tocopherol 75% (weight to weight) and LLU-α 25% (weight to weight) is rendered. As a further control, mice in which tumor formation is induced are treated with varying concentrations of α-tocopherol so as to evaluate the relative effectivity of γ-tocopherol and the formulation of γ-tocopherol and LLU-α, as compared to α-tocopherol.
Mice which receive treatment with γ-tocopherol or a formulation of γ-tocopherol and LLU-α, as described above, are given 20 mg/kg of supplement for a period of 2-4 weeks. Tumor cells derived from a spontaneously arising mammary tumor are then injected into the thigh area of the experimental mice to induce tumor formation. Treatment with γ-tocopherol and the formulation of γ-tocopherol and LLU-α is continued according to the protocol above. After 21 days, the mean volume of tumors in the mice is determined and compared.

- melting point: 173 °C
SMILES: Cc1c(C)c2c(c(C)c1O)CCC(C)(CCC(=O)O)O2 (racemic) [Example 12, 2,5,7,8-tetramethyl-2-(β-carboxyethyl)-6-hydroxy chroman]

- kaliuresis (potassium excretion) ([1]; after infusion, conscious rat): no detectable kaliuresis
- Physical Properties: stability in CDCl3 ([2]; CDCl3): Unstable in
- Physical Properties: stability in dilute base ([2]; dilute base): instability; also recorded: Unstable in
- Na+/K+-ATPase inhibition [3]: no inhibition
SMILES: Cc1c(O)cc2c(c1C)OC(C)(CCC(=O)O)CC2 (racemic) [LLU-α, 6-hydroxy-2,7,8-trimethylchroman-2-propanoic acid]
- natriuretic activity ([1]; 8 μg/kg, further purified on acetic acid/acetonitrile RP-HPLC (seventh step)): active
- change in mean arterial pressure ([1]; infusion, conscious rat): Neither LLU-α nor -γ caused a significant Change; also recorded: does not cause a significant change
- effect on blood pressure ([1]; infusion, conscious rat): no effect on blood pressure
- natriuresis when infused into the rat ([1]; infusion, conscious rat): sustained natriuresis
- natriuretic activity at lower or higher doses ([1]; partially purified (sixth step), doses below or above 4-8 μg/kg): no activity
- dose range with natriuretic activity ([1]; partially purified from silica gel-HPLC (sixth purification step)): 4 to 8 µg/kg
- natriuretic dose-response curve ([1]; shape of curve (Table III)): narrow and biphasic
- Natriuretic Response (R) ([1]; silica gel HPLC fraction 17, dose 0.2 μg, infused in conscious rat): −0.14
- Natriuretic Response (R) ([1]; silica gel HPLC fraction 17, dose 1 μg): 0.27
- Natriuretic Response (R) ([1]; silica gel HPLC fraction 17, dose 2 μg): 1.14 and 0.75
- Natriuretic Response (R) ([1]; silica gel HPLC fraction 17, dose 10 μg): 0.26
- Natriuretic Response (R) ([1]; silica gel HPLC fraction 18, dose 22.4 μg): 0.02
- Natriuretic Response (R) ([1]; silica gel HPLC fraction 18, dose 56.4 μg): 0.23
- Natriuretic Response (R) ([1]; silica gel HPLC fraction 19, dose 0.2 μg): 0.24
- Natriuretic Response (R) ([1]; silica gel HPLC fraction 19, dose 1 μg): 0.93
- Natriuretic Response (R) ([1]; silica gel HPLC fraction 19, dose 10 μg): 0.09
- sodium excretion in the urine in mammals ([1]; without a corresponding increase in potassium excretion): capable of increasing sodium excretion

SMILES: Cc1c(O)cc2c(c1C)O[C@](C)(CCC[C@H](C)CCC[C@H](C)CCCC(C)C)CC2 [γ-tocopherol]
- mean volume of tumors [4]: less than the mean volume of tumors in the control mice
